# Patent publication US12226409B2, “Treatment of hepatocellular carcinoma” (Eisai R&D Management Co., Ltd., priority 2017, dated 2025)
# Tested on: patients with unresectable HCC
# Experiment: Open-label phase 3 study, safety and side-effect profile (CTCAE v4.0)
# From the text: Randomization was stratified according to region (Asia-Pacific or Western regions), macroscopic portal vein invasion and/or extrahepatic spread (yes or no), Eastern Cooperative Oncology Group performance status (0 or 1), and body weight (<60 kg or ≥60 kg).
# Safety assessments included recording of vital signs, hematologic and biochemical laboratory testing, urinalysis, and electrocardiography.
smiles,measurement,setting,value
"COc1cc2nccc(Oc3ccc(NC(=O)NC4CC4)c(Cl)c3)c2cc1C(N)=O [Lenvatinib, 4-(3-chloro-4(cyclopropylaminocarbonyl)aminophenoxy)-7-methoxy-6-quinolinecarboxamide]",TEAE: Decreased appetite,8 mg per day,33.1%
same,TEAE: Diarrhea,8 mg per day,35.1%
same,TEAE: Hypertension,8 mg per day,43.0%
same,TEAE: decreased weight,8 mg per day,28.5%
same,Dose reduction/interruption: Abdominal pain,8 mg starting dose,2 (1.3) n (%)
same,Dose reduction/interruption: Abdominal pain upper,8 mg starting dose,2 (1.3) n (%)
same,Dose reduction/interruption: Alanine aminotransferase increased,8 mg starting dose,2 (1.3) n (%)
same,Dose reduction/interruption: Anemia,8 mg starting dose,2 (1.3) n (%)
same,Dose reduction/interruption: Ascites,8 mg starting dose,3 (2.0) n (%)
same,Dose reduction/interruption: Aspartate aminotransferase increased,8 mg starting dose,4 (2.6) n (%)
same,Dose reduction/interruption: Asthenia,8 mg starting dose,3 (2.0) n (%)
same,Dose reduction/interruption: Blood and lymphatic system disorders,8 mg starting dose,5 (3.3) n (%)
same,Dose reduction/interruption: Blood bilirubin increased,8 mg starting dose,8 (5.3) n (%)
same,Dose reduction/interruption: Decreased appetite,8 mg starting dose,15 (9.9) n (%)
same,Dose reduction/interruption: Dehydration,8 mg starting dose,3 (2.0) n (%)
same,Dose reduction/interruption: Diarrhea,8 mg starting dose,8 (5.3) n (%)
same,Dose reduction/interruption: Dyspnea,8 mg starting dose,2 (1.3) n (%)
same,Dose reduction/interruption: Edema peripheral,8 mg starting dose,2 (1.3) n (%)
same,Dose reduction/interruption: Esophageal varices hemorrhage,8 mg starting dose,0 (0.0) n (%)
same,Dose reduction/interruption: Fatigue,8 mg starting dose,5 (3.3) n (%)
same,Dose reduction/interruption: Gamma-glutamyltransferase increased,8 mg starting dose,1 (0.7) n (%)
same,Dose reduction/interruption: Gastrointestinal disorders,8 mg starting dose,22 (14.6) n (%)
same,Dose reduction/interruption: General disorders and administration site conditions,8 mg starting dose,17 (11.3) n (%)
same,Dose reduction/interruption: Hepatic encephalopathy,8 mg starting dose,4 (2.6) n (%)
same,Dose reduction/interruption: Hepatic function abnormal,8 mg starting dose,0 (0.0) n (%)
same,Dose reduction/interruption: Hepatobiliary disorders,8 mg starting dose,2 (1.3) n (%)
same,Dose reduction/interruption: Hypertension,8 mg starting dose,3 (2.0) n (%)
same,Dose reduction/interruption: Hyponatremia,8 mg starting dose,2 (1.3) n (%)
same,Dose reduction/interruption: Investigations,8 mg starting dose,24 (15.9) n (%)
same,Dose reduction/interruption: Malaise,8 mg starting dose,2 (1.3) n (%)
same,Dose reduction/interruption: Metabolism and nutrition disorders,8 mg starting dose,21 (13.9) n (%)
same,Dose reduction/interruption: Musculoskeletal and connective tissue disorders,8 mg starting dose,4 (2.6) n (%)
same,Dose reduction/interruption: Myalgia,8 mg starting dose,1 (0.7) n (%)
same,Dose reduction/interruption: Nausea,8 mg starting dose,2 (1.3) n (%)
same,Dose reduction/interruption: Nervous system disorders,8 mg starting dose,7 (4.6) n (%)
same,Dose reduction/interruption: Neutropenia,8 mg starting dose,0 (0.0) n (%)
same,Dose reduction/interruption: Neutrophil count decreased,8 mg starting dose,4 (2.6) n (%)
same,Dose reduction/interruption: Palmar-plantar erythrodysesthesia syndrome,8 mg starting dose,4 (2.6) n (%)
same,Dose reduction/interruption: Platelet count decreased,8 mg starting dose,9 (6.0) n (%)
same,Dose reduction/interruption: Proteinuria,8 mg starting dose,4 (2.6) n (%)
same,Dose reduction/interruption: Pyrexia,8 mg starting dose,4 (2.6) n (%)
same,Dose reduction/interruption: Rash,8 mg starting dose,0 (0.0) n (%)
same,Dose reduction/interruption: Rash maculo-papular,8 mg starting dose,0 (0.0) n (%)
same,Dose reduction/interruption: Renal and urinary disorders,8 mg starting dose,5 (3.3) n (%)
same,"Dose reduction/interruption: Respiratory, thoracic and mediastinal disorders",8 mg starting dose,4 (2.6) n (%)
same,Dose reduction/interruption: Skin and subcutaneous tissue disorders,8 mg starting dose,5 (3.3) n (%)
same,Dose reduction/interruption: Stomatitis,8 mg starting dose,2 (1.3) n (%)
same,Dose reduction/interruption: Thrombocytopenia,8 mg starting dose,2 (1.3) n (%)
same,Dose reduction/interruption: Vascular disorders,8 mg starting dose,3 (2.0) n (%)
same,Dose reduction/interruption: Vomiting,8 mg starting dose,1 (0.7) n (%)
same,Dose reduction/interruption: Weight decreased,8 mg starting dose,3 (2.0) n (%)
same,Dose reduction/interruption: White blood cell count decreased,8 mg starting dose,3 (2.0) n (%)
same,Subjects with Any TEAEs,8 mg starting dose,151 (100.0) n (%)
same,Subjects with any TEAEs leading to Dose Reduction or Interruption,8 mg starting dose,81 (53.6) n (%)
same,TEAE: Abdominal pain,8 mg starting dose,19 (12.6) n (%)
same,TEAE: Abdominal pain upper,8 mg starting dose,21 (13.9) n (%)
same,TEAE: Alanine aminotransferase increased,8 mg starting dose,17 (11.3) n (%)
same,TEAE: Alopecia,8 mg starting dose,5 (3.3) n (%)
same,TEAE: Ascites,8 mg starting dose,21 (13.9) n (%)
same,TEAE: Aspartate aminotransferase increased,8 mg starting dose,21 (13.9) n (%)
same,TEAE: Asthenia,8 mg starting dose,14 (9.3) n (%)
same,TEAE: Back pain,8 mg starting dose,11 (7.3) n (%)
same,TEAE: Blood bilirubin increased,8 mg starting dose,23 (15.2) n (%)
same,TEAE: Constipation,8 mg starting dose,19 (12.6) n (%)
same,TEAE: Decreased appetite,8 mg starting dose,50 (33.1) n (%)
same,TEAE: Diarrhea,8 mg starting dose,53 (35.1) n (%)
same,TEAE: Dysphonia,8 mg starting dose,28 (18.5) n (%)
same,TEAE: Edema peripheral,8 mg starting dose,23 (15.2) n (%)
same,TEAE: Fatigue,8 mg starting dose,42 (27.8) n (%)
same,TEAE: Hypertension,8 mg starting dose,65 (43.0) n (%)
same,TEAE: Hypothyroidism,8 mg starting dose,25 (16.6) n (%)
same,TEAE: Nausea,8 mg starting dose,24 (15.9) n (%)
same,TEAE: Palmar-plantar erythrodysesthesia syndrome,8 mg starting dose,35 (23.2) n (%)
same,TEAE: Platelet count decreased,8 mg starting dose,26 (17.2) n (%)
same,TEAE: Proteinuria,8 mg starting dose,37 (24.5) n (%)
same,TEAE: Pyrexia,8 mg starting dose,24 (15.9) n (%)
same,TEAE: Rash,8 mg starting dose,18 (11.9) n (%)
same,TEAE: Stomatitis,8 mg starting dose,11 (7.3) n (%)
same,TEAE: Vomiting,8 mg starting dose,22 (14.6) n (%)
same,TEAE: Weight decreased,8 mg starting dose,43 (28.5) n (%)
same,TEAE: Decreased appetite,12 mg per day,34.5%
same,TEAE: Diarrhea,12 mg per day,40.3%
same,TEAE: Hypertension,12 mg per day,41.8%
same,TEAE: decreased weight,12 mg per day,32.0%
same,Dose reduction/interruption: Abdominal pain,12 mg starting dose,4 (1.2) n (%)
same,Dose reduction/interruption: Abdominal pain upper,12 mg starting dose,3 (0.9) n (%)
same,Dose reduction/interruption: Alanine aminotransferase increased,12 mg starting dose,4 (1.2) n (%)
same,Dose reduction/interruption: Anemia,12 mg starting dose,1 (0.3) n (%)
same,Dose reduction/interruption: Ascites,12 mg starting dose,7 (2.2) n (%)
same,Dose reduction/interruption: Aspartate aminotransferase increased,12 mg starting dose,5 (1.5) n (%)
same,Dose reduction/interruption: Asthenia,12 mg starting dose,13 (4.0) n (%)
same,Dose reduction/interruption: Blood and lymphatic system disorders,12 mg starting dose,11 (3.4) n (%)
same,Dose reduction/interruption: Blood bilirubin increased,12 mg starting dose,12 (3.7) n (%)
same,Dose reduction/interruption: Decreased appetite,12 mg starting dose,21 (6.5) n (%)
same,Dose reduction/interruption: Dehydration,12 mg starting dose,3 (0.9) n (%)
same,Dose reduction/interruption: Diarrhea,12 mg starting dose,28 (8.6) n (%)
same,Dose reduction/interruption: Dyspnea,12 mg starting dose,6 (1.8) n (%)
same,Dose reduction/interruption: Edema peripheral,12 mg starting dose,4 (1.2) n (%)
same,Dose reduction/interruption: Esophageal varices hemorrhage,12 mg starting dose,5 (1.5) n (%)
same,Dose reduction/interruption: Fatigue,12 mg starting dose,22 (6.8) n (%)
same,Dose reduction/interruption: Gamma-glutamyltransferase increased,12 mg starting dose,6 (1.8) n (%)
same,Dose reduction/interruption: Gastrointestinal disorders,12 mg starting dose,65 (20.0) n (%)
same,Dose reduction/interruption: General disorders and administration site conditions,12 mg starting dose,50 (15.4) n (%)
same,Dose reduction/interruption: Hepatic encephalopathy,12 mg starting dose,16 (4.9) n (%)
same,Dose reduction/interruption: Hepatic function abnormal,12 mg starting dose,2 (0.6) n (%)
same,Dose reduction/interruption: Hepatobiliary disorders,12 mg starting dose,25 (7.7) n (%)
same,Dose reduction/interruption: Hypertension,12 mg starting dose,26 (8.0) n (%)
same,Dose reduction/interruption: Hyponatremia,12 mg starting dose,3 (0.9) n (%)
same,Dose reduction/interruption: Investigations,12 mg starting dose,57 (17.5) n (%)
same,Dose reduction/interruption: Malaise,12 mg starting dose,3 (0.9) n (%)
same,Dose reduction/interruption: Metabolism and nutrition disorders,12 mg starting dose,31 (9.5) n (%)
same,Dose reduction/interruption: Musculoskeletal and connective tissue disorders,12 mg starting dose,14 (4.3) n (%)
same,Dose reduction/interruption: Myalgia,12 mg starting dose,4 (1.2) n (%)
same,Dose reduction/interruption: Nausea,12 mg starting dose,14 (4.3) n (%)
same,Dose reduction/interruption: Nervous system disorders,12 mg starting dose,28 (8.6) n (%)
same,Dose reduction/interruption: Neutropenia,12 mg starting dose,6 (1.8) n (%)
same,Dose reduction/interruption: Neutrophil count decreased,12 mg starting dose,7 (2.2) n (%)
same,Dose reduction/interruption: Palmar-plantar erythrodysesthesia syndrome,12 mg starting dose,21 (6.5) n (%)
same,Dose reduction/interruption: Platelet count decreased,12 mg starting dose,13 (4.0) n (%)
same,Dose reduction/interruption: Proteinuria,12 mg starting dose,29 (8.9) n (%)
same,Dose reduction/interruption: Pyrexia,12 mg starting dose,8 (2.5) n (%)
same,Dose reduction/interruption: Rash,12 mg starting dose,2 (0.6) n (%)
same,Dose reduction/interruption: Rash maculo-papular,12 mg starting dose,0 (0.0) n (%)
same,Dose reduction/interruption: Renal and urinary disorders,12 mg starting dose,35 (10.8) n (%)
same,"Dose reduction/interruption: Respiratory, thoracic and mediastinal disorders",12 mg starting dose,12 (3.7) n (%)
same,Dose reduction/interruption: Skin and subcutaneous tissue disorders,12 mg starting dose,23 (7.1) n (%)
same,Dose reduction/interruption: Stomatitis,12 mg starting dose,4 (1.2) n (%)
same,Dose reduction/interruption: Thrombocytopenia,12 mg starting dose,4 (1.2) n (%)
same,Dose reduction/interruption: Vascular disorders,12 mg starting dose,30 (9.2) n (%)
same,Dose reduction/interruption: Vomiting,12 mg starting dose,11 (3.4) n (%)
same,Dose reduction/interruption: Weight decreased,12 mg starting dose,17 (5.2) n (%)
same,Dose reduction/interruption: White blood cell count decreased,12 mg starting dose,3 (0.9) n (%)
same,Subjects with Any TEAEs,12 mg starting dose,319 (98.2) n (%)
same,Subjects with any TEAEs leading to Dose Reduction or Interruption,12 mg starting dose,213 (65.5) n (%)
same,TEAE: Abdominal pain,12 mg starting dose,62 (19.1) n (%)
same,TEAE: Abdominal pain upper,12 mg starting dose,37 (11.4) n (%)
same,TEAE: Alanine aminotransferase increased,12 mg starting dose,36 (11.1) n (%)
